Experimental data as given in patent US12692322B2, “KRAS specific antibodies and uses thereof” (Genentech, Inc., priority 2020, dated 2026).

Assays:
[1] = target: T1, alkylated KRas^G12C in H1171 KRas^G12C cells (Homo sapiens, UniProt P01116, G12C); test: Immunofluorescence and high content imaging; format: cell-based; conditions: treatment for 16 hours
T1 construct: Immunoprecipitation of alkylated and un-alkylated KRas^G12C in H1171 KRAS^G12C mutant cancer cells; endogenous in cells; host or cells: H1171 (HCC1171) KRAS G12C mutant cancer cells
Description: Immunofluorescence and High Content Imaging Cells (20000 to 40000 cells per well depending on the cell line) were seeded into Poly-L-Lysine Coated 96-well plates (Cell Carrier Ultra; Perkin Elmer) and supplemented with complete medium (RPMI with 2% L-Glutamine and 10% FBS). The next day, cells were treated with KRas^G12C inhibitors at indicated concentrations and incubated for the indicated length of time. At the end of treatment, cells were washed twice with cold 1×PBS, fixed with 3% paraformaldehyde for 20 minutes at room temperature, washed for 10 minutes with 1×PBS, and the PFA was quenched with 50 mM NH4Cl for 10 minutes at room temperature. Cells were washed again with 1×PBS twice for 5 minutes, then permeabilized with 1× Perm/Wash Buffer (BD, Fisher Scientific) for 20 minutes at room temperature. Cells were then incubated with primary antibody diluted in Perm/Wash buffer at indicated concentration for 2 hours at room temperature. Cells were then washed three times with Perm/Wash buffer for 10 minutes each, and the incubated with conjugated fluorescence secondary antibody for 20 to 60 minutes (Alexa488 anti-human and Alexa647 anti-rabbit or anti-rat at 1:500 from Jackson ImmunoResearch Laboratories Inc.) 100 ml of 300 nM DAPI was added to each well for 15 minutes and then cells were washed twice with Perm/Wash buffer, and once with 1×PBS prior to imaging. […]

[2] = system: SWII pocket of KRas^G12C-GDP and KRas^WT-GDP; test: SPR of SWII ligands with SWII-blocked reference, with and without 2H11; format: binding, human
Description: Surface plasmon resonance (SPR) experiments with 2H11 anti-KRas antibody. A series S SA (streptavidin) chip was inserted into a Biacore T200 (GE Health Sciences). The instrument was primed into running buffer (50 mM HEPES pH 7.5, 150 mM NaCl, 0.2% (w/v) PEG-3350, 0.1% CM-dextran (w/v), 0.1 mM TCEP, 10 mM MgCl2, 100 nM GDP, and 2% (v/v) DMSO). KRas^G12C was pre-blocked at the 12 position with covalent binding KRas^G12C alkylator was captured to yield 2000-2500 response units (RU) on flow channel 1 (FC1) and FC3 to serve as the reference for KRas^WT and KRas^G12C and allow affinity measurement exclusively at the Switch II (SWII) pocket. KRas^WT or KRas^G12C was captured on FC2 and FC4 within 100 RU of the reference channel capture level and data was collected in FC 2-1, FC 4-3 mode. […] Analyte samples were tested […] in 2-fold dose response with 20-30 second contact time and 30 second dissociation. Data was analyzed in with a 1:1 affinity model in Biacore S200 Evaluation Software 1.0 and figures were made in Scrubber 2 (Biologic Software) (FIG. 5A and FIG. 5B).

**Q.** `C=CC(=O)N1CCN(c2ncnc3c(F)c(-c4c(O)cccc4F)c(Cl)cc23)CC1` (atropisomer, axis not shown) [ARS-1620, (R)-1-(4-(6-chloro-8-fluoro-7-(2-fluoro-6-hydroxyphenyl)quinazolin-4-yl)piperazin-1-yl)prop-2-en-1-one] was tested. Which “alkylation of KRas^G12C by IF and immunoblot analysis” value [1] did it give?
**A.** almost complete alkylation

**Q.** What about the “affinity of SWII covalent molecules in the presence versus absence of 2H11 anti-KRas antibody” value [2] of the same compound?
**A.** greatly enhanced

**Q.** Which “affinity of SWII covalent molecules in the presence versus absence of 2H11 anti-KRas antibody” value [2] does the source give for `C=CC(=O)N1CCN(c2ncnc3cc(-c4c(C)ccc5[nH]ncc45)c(Cl)cc23)CC1` (atropisomer, axis not shown) [GNE-1952, (R)-1-(4-(6-chloro-7-(5-methyl-TH-indazol-4-yl)quinazolin-4-yl)piperazin-1-yl)prop-2-en-1-one] here?
**A.** greatly enhanced

**Q.** For `C=CC(=O)N1CC(N2CCN(C(=O)CNc3cc(C4(C)CC4)c(Cl)cc3O)CC2)C1` [ARS-853, 1-(3-(4-((4-chloro-2-hydroxy-5-(1-methylcyclopropyl)phenyl)glycyl)piperazin-1-yl)azetidin-1-yl)prop-2-en-1-one], which “affinity of SWII covalent molecules in the presence versus absence of 2H11 anti-KRas antibody” value [2] is on record?
**A.** greatly enhanced
